Laboratory results as given in the NIST ThermoML archive (doi:10.1021/acs.jced.5b00944).

Tests used:
[1] = for speed of sound / mass density: 100 kPa, Liquid; for speed of sound: Sing-around technique in a fixed-path interferometer; for mass density: Vibrating tube method; for surface tension liquid-gas: Capillary rise
[2] = xn = mol fraction of the nth substance listed; details: x1 = 1; for surface tension liquid-gas: Capillary rise; for speed of sound: Sing-around technique in a fixed-path interferometer

CCCC[N+]1(C)CCCC1.N#CN=C=[N-] [1-butyl-1-methylpyrrolidinium dicyanamide]
[1]
Details	mass density [kg/m3]	speed of sound [m/s]
288.15 K	1019.11	1834.4
298.15 K	1013.48	1809.6
308.15 K	1007.82	1785.2
318.15 K	1002.33	1761
333.15 K	994.14	1724.7

O [water] + CCCC[N+]1(C)CCCC1.N#CN=C=[N-]
[2]
Details	surface tension liquid-gas [mN/m]
297.7 K	71.9
304.8 K	70.6
313.2 K	69.5
324.1 K	67.6

[2], 100 kPa, Liquid
Details	speed of sound [m/s]
318.15 K	1536.7
333.15 K	1551.3

Details	mass density [kg/m3]
[2], 333.15 K, 100 kPa, Liquid, Vibrating tube method	983.19

O [water]
[1]
Details	speed of sound [m/s]	surface tension liquid-gas [mN/m]
297.7 K	–	71.9
304.8 K	–	70.6
313.2 K	–	69.5
318.15 K	1536.7	–
324.1 K	–	67.6
333.15 K	1551.3	–
